According to patent US8603751B2, “Mycobacterial disease detection, treatment, and drug discovery” (priority 2006, dated 2013):

Molecular target: DevR (also known as DosR or Rv3133c) dimerization (Mycobacterium tuberculosis, UniProt P9WMF9)
Assay: M-PFC Alamar Blue screen for inhibitors of DevR dimerization
Type: cell-based
Conditions: for effect on DevR dimerization: M-PFC Alamar Blue assay in Msm, titration (FIG. 11); for concentration with the most dramatic effect on DevR dimerization: titration curves, FIG. 11

Sequence of DevR (also known as DosR or Rv3133c) dimerization (P9WMF9 whole entry, looked up): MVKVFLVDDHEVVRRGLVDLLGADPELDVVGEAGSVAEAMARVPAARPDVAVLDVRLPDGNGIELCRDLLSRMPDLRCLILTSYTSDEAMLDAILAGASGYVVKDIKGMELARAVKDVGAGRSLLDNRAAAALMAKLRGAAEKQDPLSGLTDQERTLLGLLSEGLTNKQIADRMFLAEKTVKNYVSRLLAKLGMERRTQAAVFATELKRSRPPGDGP

SMILES	effect on DevR dimerization	concentration with the most dramatic effect on DevR dimerization [µg/mL]
Cl.Cn1c(=N)n(CC(=O)c2cc(C(C)(C)C)c(O)c(C(C)(C)C)c2)c2ccccc21 [1-(3,5-di-tert-butyl-4-hydroxyphenyl)-2-(2-imino-3-methyl-2,3-dihydro-1H-benzimidazol-1-yl)ethanone hydrochloride]	inhibitory effect against DevR dimerization at low concentrations	12.5
CC(=O)NS(=O)(=O)c1ccc(NC(=O)CCc2ccccc2)cc1 [N-(4-[(acetylamino)sulfonyl]phenyl)-3-phenylpropanamide]	inhibitory effect against DevR dimerization at low concentrations	12.5
